# Source: ChEMBL document CHEMBL5247617, “4-Arylthiosemicarbazide derivatives - Pharmacokinetics, toxicity and anti-Toxoplasma gondii activity in vivo” (Eur J Med Chem, 2022)
# Calls of active or inactive are those of the source. No cut-off for these calls is given here.
# Columns and labels:
# [1] = Toxicity in BALB/c mouse assessed as changes in liver weight at 50 mg/kg, po administered for 5 days and measured after 14 days; type: organism-based; conditions: in vivo, 120 h, time 5 day
# [2] = Toxicity in BALB/c mouse assessed as changes in size of hepatocyte nuclei at 50 mg/kg, po administered for 5 days and measured after 14 days by hematoxylin-eosin staining based microscopic analysis; type: organism-based; conditions: hepatocytes, 120 h, time 5 day
# [3] = Tmax in BALB/c mouse serum at 25 mg/kg, po measured upto 60 mins by LC-MS/MS analysis; type: ADME, organism-based; conditions: in vivo, 1 h
# Toxoplasma gondii [4] = test: Antiparasitic activity against Toxoplasma gondii RH infected in BALB/c mouse assessed as reduction in number of bradyzoite gene copies in muscles at 25 mg/kg, po administered every 24 hrs for 5 days starting from 24 hrs post infection by real-time qPCR analysis; type: functional; conditions: time 5 day
# [5] = Tmax in BALB/c mouse serum at 50 mg/kg, po measured upto 60 mins by LC-MS/MS analysis; type: ADME, organism-based; conditions: in vivo, 1 h
# [6] = AUC in BALB/c mouse serum at 50 mg/kg, po measured upto 60 mins by LC-MS/MS analysis; type: ADME, organism-based; parameters: time < 60 min, dose 50 mg/kg, route po; conditions: in vivo, 1 h
# [7] = Toxicity in BALB/c mouse assessed as disseminated necrosis of hepatocytes at 50 mg/kg, po administered for 5 days and measured after 1 day by hematoxylin-eosin staining based microscopic analysis; type: organism-based; conditions: in vivo, 120 h, time 5 day
# [8] = Toxicity in BALB/c mouse assessed as changes in body weight at 25 to 50 mg/kg, po administered for 5 days and measured on day 1 and day 14; type: organism-based; conditions: in vivo, 120 h, dose 25-50 mg/kg, time 5 day
# [9] = Oral bioavailability in BALB/c mouse serum at 50 mg/kg measured upto 60 mins by LC-MS/MS analysis; type: ADME, organism-based
# Toxoplasma gondii [10] = test: Antiparasitic activity against Toxoplasma gondii RH infected in BALB/c mouse assessed as survival rate at 50 mg/kg, po administered every 12 hrs for 5 days starting from 24 hrs post infection by Kaplan-Meier method; type: functional; conditions: 120 h, time 5 day
# Toxoplasma gondii [11] = test: Antiparasitic activity against Toxoplasma gondii DX infected in C3H/HeOuJ mouse assessed as prolongation of survival at 25 to 50 mg/kg, po administered for 5 days starting from 24 hrs post infection by Kaplan-Meier method; type: functional, organism-based; conditions: dose 25-50 mg/kg, time 5.0 day
# [12] = Elimination half-life in BALB/c mouse serum at 25 mg/kg, po measured upto 60 mins by LC-MS/MS analysis; type: ADME, organism-based; conditions: in vivo, 1 h
# HS27 = test: Cytotoxicity against human HS27 cells assessed as reduction in cell viability; type: toxicity, cell-based
# [13] = Toxicity in BALB/c mouse assessed as microvesicular steatosis of hepatocytes at 50 mg/kg, po administered for 5 days and measured after 1 day by hematoxylin-eosin staining based microscopic analysis; type: organism-based; conditions: in vivo, 120 h, time 5 day
# [14] = Toxicity in BALB/c mouse assessed as disseminated necrosis of hepatocytes at 50 mg/kg, po administered for 5 days and measured after 14 days by hematoxylin-eosin staining based microscopic analysis; type: organism-based; conditions: in vivo, 120 h, time 5 day
# [15] = Tmax in BALB/c mouse brain at 50 mg/kg, po measured upto 24 hrs by LC-MS/MS analysis; type: ADME, organism-based
# [16] = Cmax in BALB/c mouse brain at 25 mg/kg, po measured upto 24 hrs by LC-MS/MS analysis; type: ADME, organism-based; parameters: time < 24 hrs, dose 25 mg/kg, route po; conditions: in vivo
# [17] = Toxicity in BALB/c mouse assessed as increase in serum ALT level at 50 mg/kg, po administered for 5 days and measured after 14 days by ELISA method; type: organism-based; conditions: in vivo, 120 h, time 5 day
# [18] = Oral bioavailability in BALB/c mouse brain at 25 mg/kg measured upto 24 hrs by LC-MS/MS analysis; type: ADME, organism-based
# [19] = Toxicity in BALB/c mouse assessed as changes in creatinine level at 50 mg/kg, po administered for 5 days and measured on day 1 and day 14 by colorimetric assay; type: organism-based; conditions: in vivo, 120 h, time 5 day
# [20] = Elimination half-life in BALB/c mouse serum at 50 mg/kg, po measured upto 60 mins by LC-MS/MS analysis; type: ADME, organism-based; conditions: in vivo, 1 h
# [21] = Toxicity in BALB/c mouse assessed as changes in body weight at 1000 mg/kg, po administered once and observed for 10 days; type: organism-based; conditions: in vivo, 240 h, time 10 day
# [22] = Elimination half-life in BALB/c mouse brain at 25 mg/kg, po measured upto 24 hrs by LC-MS/MS analysis; type: ADME, organism-based; conditions: read-out: beta t1/2 (converted)
# [23] = Elimination half-life in BALB/c mouse brain at 50 mg/kg, po measured upto 24 hrs by LC-MS/MS analysis; type: ADME, organism-based; conditions: read-out: beta t1/2 (converted)
# [24] = AUC in BALB/c mouse serum at 25 mg/kg, po measured upto 60 mins by LC-MS/MS analysis; type: ADME, organism-based; parameters: dose 25 mg/kg, time < 60 min, route po; conditions: in vivo, 1 h
# Toxoplasma gondii [25] = test: Antiparasitic activity against Toxoplasma gondii RH infected in human Hs27 cells assessed as parasitic growth inhibition incubated for 24 hrs followed by [5,6-3H] uracil addition and measured after 72 hrs by liquid scintillation counter analysis; type: functional, organism-based
# [26] = AUC in BALB/c mouse brain at 50 mg/kg, po measured upto 24 hrs by LC-MS/MS analysis; type: ADME, organism-based; parameters: dose 50 mg/kg, time < 24 hrs, route po
# [27] = Tmax in BALB/c mouse brain at 25 mg/kg, po measured upto 24 hrs by LC-MS/MS analysis; type: ADME, organism-based
# Toxoplasma gondii [28] = test: Antiparasitic activity against Toxoplasma gondii RH infected in BALB/c mouse assessed as reduction of daughter tachyzoites in blood at 25 to 50 mg/kg, po administered for 5 days starting from 24 hrs post infection by real-time qPCR analysis; type: functional, organism-based; conditions: dose 25-50 mg/kg, time 5.0 day
# [29] = AUC in BALB/c mouse brain at 25 mg/kg, po measured upto 24 hrs by LC-MS/MS analysis; type: ADME, organism-based; parameters: time < 24 hrs, dose 25 mg/kg, route po
# Toxoplasma gondii [30] = test: Antiparasitic activity against Toxoplasma gondii RH infected in BALB/c mouse assessed as prolongation of animal survival at 25 to 50 mg/kg, po administered for 5 days starting from 24 hrs post infection by Kaplan-Meier method; type: functional, organism-based; conditions: dose 25-50 mg/kg, time 5.0 day
# [31] = Cmax in BALB/c mouse serum at 50 mg/kg, po measured upto 60 mins by LC-MS/MS analysis; type: ADME, organism-based; parameters: time < 60 min, dose 50 mg/kg, route po; conditions: in vivo, 1 h
# [32] = Cmax in BALB/c mouse brain at 50 mg/kg, po measured upto 24 hrs by LC-MS/MS analysis; type: ADME, organism-based; parameters: time < 24 hrs, dose 50 mg/kg, route po; conditions: in vivo
# Toxoplasma gondii [33] = test: Antiparasitic activity against Toxoplasma gondii RH infected in BALB/c mouse assessed as decrease in number of bradyzoite gene copies in brain at 50 mg/kg, po administered every 24 hrs for 5 days starting from 24 hrs post infection by real-time qPCR analysis; type: functional, organism-based; conditions: time 5.0 day
# Toxoplasma gondii [34] = test: Antiparasitic activity against Toxoplasma gondii RH infected in BALB/c mouse assessed as reduction of bradyzoite gene copies in heart at 25 mg/kg, po administered every 24 hrs for 5 days starting from 24 hrs post infection by real-time qPCR analysis; type: functional, organism-based; conditions: time 5.0 day
# [35] = Toxicity in BALB/c mouse assessed as changes in liver weight at 50 mg/kg, po administered for 5 days and measured after 1 day; type: organism-based; conditions: in vivo, 120 h, time 5 day
# [36] = Oral bioavailability in BALB/c mouse brain at 50 mg/kg measured upto 24 hrs by LC-MS/MS analysis; type: ADME, organism-based
# [37] = Cmax in BALB/c mouse serum at 25 mg/kg, po measured upto 60 mins by LC-MS/MS analysis; type: ADME, organism-based; parameters: dose 25 mg/kg, time < 60 min, route po; conditions: in vivo, 1 h
# L929 = test: Cytotoxicity against mouse L929 cells assessed as reduction in cell viability incubated for 24 hrs by MTT assay; type: toxicity, cell-based; conditions: l929, 24 h
# [38] = Oral bioavailability in BALB/c mouse serum at 25 mg/kg measured upto 60 mins by LC-MS/MS analysis; type: ADME, organism-based
# [39] = Toxicity in BALB/c mouse assessed as changes in serum AST level at 50 mg/kg, po administered for 5 days and measured on day 1 and day 14 by ELISA method; type: organism-based; conditions: in vivo, 120 h, time 5 day
# Toxoplasma gondii [40] = test: Antiparasitic activity against Toxoplasma gondii RH infected in BALB/c mouse assessed as decrease in IFNgamma level in serum at 25 to 50 mg/kg, po administered for 5 days starting from 24 hrs post infection by ELISA method; type: functional, organism-based; conditions: dose 25-50 mg/kg, time 5.0 day
# [41] = Toxicity in BALB/c mouse assessed as increase in serum ALT level at 20 mg/kg, po administered for 5 days and measured on day 1 and day 14 by ELISA method; type: organism-based; conditions: in vivo, 120 h, time 5 day
# Toxoplasma gondii [42] = test: Antiparasitic activity against Toxoplasma gondii RH infected in BALB/c mouse assessed as reduction in number of bradyzoite gene copies in muscles at 20 mg/kg, po administered every 24 hrs for 5 days starting from 24 hrs post infection by real-time qPCR analysis; type: functional; conditions: time 5 day
# [43] = Toxicity in BALB/c mouse assessed as changes in liver weight at 20 mg/kg, po administered for 5 days and measured after 14 days; type: organism-based; conditions: in vivo, 120 h, time 5 day
# Toxoplasma gondii [44] = test: Antiparasitic activity against Toxoplasma gondii RH infected in BALB/c mouse assessed as reduction of bradyzoite gene copies in brain at 20 mg/kg, po administered every 24 hrs for 5 days starting from 24 hrs post infection by real-time qPCR analysis; type: functional, organism-based; conditions: time 5.0 day
# [45] = Toxicity in BALB/c mouse assessed as increase in serum AST level at 20 mg/kg, po administered for 5 days and measured on day 1 and day 14 by ELISA method; type: organism-based; conditions: in vivo, 120 h, time 5 day
# Toxoplasma gondii [46] = test: Antiparasitic activity against Toxoplasma gondii RH infected in BALB/c mouse assessed as decrease in IFNgamma level in serum at 20 mg/kg, po administered every 24 hrs for 5 days starting from 24 hrs post infection by ELISA method; type: functional, organism-based; conditions: time 5.0 day
# Toxoplasma gondii [47] = test: Antiparasitic activity against Toxoplasma gondii DX infected in C3H/HeOuJ mouse assessed as prolongation of survival at 20 mg/kg, po administered every 24 hrs for 5 days starting from 24 hrs post infection by Kaplan-Meier method; type: functional, organism-based; conditions: time 5.0 day
# Toxoplasma gondii [48] = test: Antiparasitic activity against Toxoplasma gondii RH infected in BALB/c mouse assessed as prolongation of animal survival at 20 mg/kg, po administered every 24 hrs for 5 days starting from 24 hrs post infection by Kaplan-Meier method; type: functional, organism-based; conditions: time 5.0 day
# [49] = Toxicity in BALB/c mouse assessed as increase in creatinine level at 20 mg/kg, po administered for 5 days and measured after 1 day by colorimetric assay; type: organism-based; conditions: in vivo, 120 h, time 5 day
# [50] = Toxicity in BALB/c mouse assessed as hydropic degeneration at 20 mg/kg, po administered for 5 days and measured after 1 day by hematoxylin-eosin staining based microscopic analysis; type: organism-based; conditions: in vivo, 120 h, time 5 day
# [51] = Toxicity in BALB/c mouse assessed as increase in liver weight at 20 mg/kg, po administered for 5 days and measured after 1 day; type: organism-based; conditions: in vivo, 120 h, time 5 day
compound,measurement,setting,value
Cc1nc[nH]c1C(=O)NNC(=S)Nc1ccc([N+](=O)[O-])cc1,Activity,[1],Non-Toxic
same,Activity,[2],Toxic
same,Tmax,[3],30 min
same,Activity,Toxoplasma gondii [4],20
same,Tmax,[5],15 min
same,AUC,[6],40640 ng·h/mL
same,Activity,[7],Toxic
same,Activity,[8],Non-Toxic
same,bioavailability,[9],4.06%
same,survival at 50 mg/kg,Toxoplasma gondii [10],20%
same,Activity,Toxoplasma gondii [11],Active
same,beta t1/2,[12],52.8 min
same,CC30,HS27,697.67 µM
same,Activity,[13],Toxic
same,Activity,[14],Toxic
same,Tmax,[15],30 min
same,Cmax,[16],7.74 ng/mg
same,Activity,[17],Non-Toxic
same,bioavailability,[18],0.46%
same,Activity,[19],Non-Toxic
same,beta t1/2,[20],24 min
same,Activity,[21],Non-Toxic
same,half-life,[22],175 min
same,half-life,[23],54.6 min
same,AUC,[24],53700 ng·h/mL
same,IC50,Toxoplasma gondii [25],67.5 µM
same,AUC at 24 h,[26],47.5 ng·h/mL
same,Tmax,[27],120 min
same,Activity,Toxoplasma gondii [28],Active
same,AUC at 24 h,[29],24.9 ng·h/mL
same,Activity,Toxoplasma gondii [30],Active
same,Cmax,[31],11080 ng/mL
same,Cmax,[32],32.27 ng/mg
same,Activity,Toxoplasma gondii [33],Active
same,Activity,Toxoplasma gondii [34],Active
same,Activity,[35],Non-Toxic
same,bioavailability,[36],1.17%
same,Cmax,[37],6400 ng/mL
same,CC30,L929,682.98 µM
same,bioavailability,[38],10.7%
same,Activity,[39],Non-Toxic
same,Activity,Toxoplasma gondii [40],Active
COc1cc(Cc2cnc(N)nc2N)cc(OC)c1OC [TRIMETHOPRIM],Activity,[41],Non-Toxic
same,Activity,Toxoplasma gondii [42],36
same,Activity,[43],Non-Toxic
same,Activity,Toxoplasma gondii [44],Active
same,Activity,[45],Non-Toxic
same,Activity,Toxoplasma gondii [46],inactive
same,Activity,Toxoplasma gondii [47],Active
same,Activity,Toxoplasma gondii [48],Active
same,Activity,[49],Toxic
same,Activity,[50],Toxic
same,Activity,[51],Toxic
